Assay results from ChEMBL document CHEMBL1132854, “Structure-based design of ketone-containing, tripeptidyl human rhinovirus 3C protease inhibitors” (Bioorg Med Chem Lett, 2000).
Square brackets hold non-standard residues; d marks the D form. Peptide text beside a SMILES is read from it. * marks the point of attachment. Cbz = O=C(OCc1ccccc1)*; Dap = NC[C@H](N)C(=O)O

What was measured:
Human rhinovirus sp. [1] = assay: Compound was evaluated for in vitro effective concentration against HRV serotype-14 (HRV-14); type: functional, organism-based
Human rhinovirus sp. [2] = assay: Compound was evaluated for the inhibition of human rhinovirus 3C protease (3CP); type: functional, organism-based
Human rhinovirus sp. [3] = assay: Compound was evaluated for in vitro effective concentration against HRV serotype-14 (HRV-1A); type: functional, organism-based
Human rhinovirus sp. [4] = assay: Compound was evaluated for in vitro cytotoxic concentration against HRV serotype-14 (HRV-14); type: functional
Human rhinovirus sp. [5] = assay: Compound was evaluated for in vitro effective concentration against HRV serotype-14 (HRV-10); type: functional, organism-based
Human rhinovirus sp. [6] = assay: Compound was evaluated for in vitro cytotoxic concentration against HRV serotype-14 (HRV-1A); type: functional
Human rhinovirus sp. [7] = assay: Compound was evaluated for in vitro cytotoxic concentration against HRV serotype-14 (HRV-10); type: functional
Human rhinovirus sp. [8] = assay: Compound was evaluated for the inhibition of human rhinovirus 3C protease (3CP); No inhibition; type: functional, organism-based

SMILES	EC50 (Human rhinovirus sp. [1])	Ki (Human rhinovirus sp. [2])	EC50 (Human rhinovirus sp. [3])	CC50 (Human rhinovirus sp. [4])	EC50 (Human rhinovirus sp. [5])	CC50 (Human rhinovirus sp. [6])	CC50 (Human rhinovirus sp. [7])	Ki (Human rhinovirus sp. [8])
CC(=O)NC[C@@H](C=O)NC(=O)[C@H](Cc1ccccc1)NC(=O)[C@H](CC(C)C)NC(=O)OCc1ccccc1 (Cbz-Leu-Phe-[Dap](Ac)-aldehyde)	2.4 µM	0.006 µM						
Cc1cc(C(=O)N[C@H](C(=O)N[C@@H](Cc2ccc(F)cc2)C(=O)N[C@@H](C[C@@H]2CCNC2=O)C(=O)c2nc3ccccc3s2)C(C)C)no1	0.34 µM	0.0045 µM	0.34 µM	250 µM	0.25 µM	250 µM	250 µM	
CC(C)CC(NC(=O)OCc1ccccc1)C(=O)N[C@@H](Cc1ccccc1)C(=O)NC(CC1CCNC1=O)C(=O)c1nc2ccccc2s1 (stereo partly specified)	3.2 µM	0.065 µM		> 320 µM				
CC(C)C[C@H](NC(=O)OCc1ccccc1)C(=O)N[C@@H](Cc1ccccc1)C(=O)N[C@@H](CCC(N)=O)C(=O)c1nc2ccccc2s1	17 µM	3.5 µM		> 100 µM				
CC(C)C[C@H](NC(=O)OCc1ccccc1)C(=O)N[C@@H](Cc1ccccc1)C(=O)N[C@@H](C[C@@H]1CCNC1=O)C(=O)c1nccs1	7.9 µM	0.7 µM		240 µM				
CC(C)C[C@H](NC(=O)OCc1ccccc1)C(=O)N[C@@H](Cc1ccccc1)C(=O)N[C@@H](C[C@@H]1CCNC1=O)C(=O)c1cc2ccccc2s1	> 10 µM	4.7 µM		> 10 µM				
CC(C)C[C@H](NC(=O)OCc1ccccc1)C(=O)N[C@@H](Cc1ccccc1)C(=O)N[C@@H](CCC(N)=O)C(O)c1nc2ccccc2s1 (stereo partly specified)	32 µM			80 µM				Not Active
CC(C)C[C@H](NC(=O)OCc1ccccc1)C(=O)N[C@@H](Cc1ccccc1)C(=O)N[C@@H](C[C@@H]1CCNC1=O)C(O)c1nc2ccccc2s1 (stereo partly specified)	7.9 µM	34 µM		63 µM				
CC(C)C[C@H](NC(=O)OCc1ccccc1)C(=O)N[C@@H](Cc1ccccc1)C(=O)N[C@@H](C[C@@H]1CCNC1=O)C(=O)c1ccccn1	4 µM	0.17 µM		200 µM				
CC(C)C[C@H](NC(=O)OCc1ccccc1)C(=O)N[C@@H](Cc1ccccc1)C(=O)N[C@@H](C[C@@H]1CCNC1=O)C(=O)c1ccccc1	> 10 µM	3.2 µM		> 10 µM				
CC(=O)NC[C@H](NC(=O)[C@H](Cc1ccccc1)NC(=O)[C@H](CC(C)C)NC(=O)OCc1ccccc1)C(=O)c1nc2ccccc2s1	> 25 µM	1.7 µM		25 µM				
